Broadly, the MIC is the smallest concentration in the dilution series that meets the test's criterion for growth inhibition. As usually defined, the IC50 is the concentration that inhibits the measured activity by half.

This is an account of results in publication PMC7866175, “Genomics-Driven Activation of Silent Biosynthetic Gene Clusters in Burkholderia gladioli by Screening Recombineering System” (Molecules, 2021).

What all share (assay type): cell-based
Data set [1] has as its system Escherichia coli ATCC 35218. Put plainly: Antibacterial activity assay. The note with it: ATCC35218.
The subject of data set [2] is Pseudomonas aeruginosa ATCC 27853. Put plainly: Antibacterial activity assay. The conditions noted are these: ATCC27853; Gram-negative bacterium Pseudomonas aeruginosa ATCC 27853.
The test system of data set [3] is Staphylococcus aureus ATCC 29213. Put plainly: Antibacterial activity assay. The conditions noted are these: ATCC29213; Gram-positive bacterium Staphylococcus aureus ATCC 29213.
For data set [4], the system named is Bacillus subtilis ATCC 6633. Put plainly: Antibacterial activity assay. The conditions noted are these: ATCC6633; Gram-positive bacterium Bacillus subtilis ATCC 6633.
Data set [5] relates to HCT116. Put plainly: Cytotoxic activity assay. The note with it: Homo sapiens, HCT-116, read-out: cytotoxic activity IC50, HCT116.
Data set [6] relates to MCF-7. Put plainly: Cytotoxic activity assay. The note with it: human breast adenocarcinoma cells MCF7.
In data set [7] the test system is Hela. Put plainly: Cytotoxic activity assay. The conditions noted are these: human cervix epithelioid carcinoma Hela.
In data set [8] the test system is HepG-2. Put plainly: Cytotoxic activity assay. The note with it: HepG2; human hepatoma cell HepG-2.
For data set [9], the system named is A549. Put plainly: Cytotoxic activity assay. The conditions noted are these: human lung adenocarcinoma cell A549.
Data set [10] relates to K562. Put plainly: Cytotoxic activity assay. The note with it: human hematological disease cells K562.
A short description of data set [11]: Cytotoxic activity assay. The conditions noted are these: human, normal cell line 293T.
Setting [12] is: Gram-negative bacterium Escherichia coli ATCC 35218, read-out: MIC.

Like-named read-outs stand apart in the source and are kept apart here. *1 amine or outer side, *2 acyl side, *3 side chain or, on linkers, in order; H or OH if unused. Where a SMILES comes first, the peptide text is derived from it. [ ]: non-standard residue; d: D form. The star is where a group is joined. ξ: configuration not given here. Decanoyl(3ξ-OH) = CCCCCCCC(O)CC(=O)*; X1 = CC=C(N[*:1])C(=O)[*:2]

Turning to `CC=C(NC(=O)CC(O)CCCCCCC)C(=O)N1CCCC1C(=O)NC(CCC(N)=O)C(=O)NC(C)C(=O)NC(C(=O)NC(Cc1ccccc1)C(=O)N1CCCC1C(=O)O)C(C)C` (stereo not shown) [Compound 1, Burriogladiodin A] ({Decanoyl(3ξ-OH)}-[X1]PQAVFP-OH; configuration not given here), the MIC in data set [1] (Escherichia coli), in data set [2], in data set [3] and in data set [4] was over 100 µM throughout. Further, the IC50 in [5], in data set [6], in [7], in [8], in data set [9] and in data set [10] was over 20 µM in each case. The IC50 in [11] turned out to be 29.4 ± 0.85 µM.
As to `CC=C(NC(=O)CC(O)CCCCCCC)C(=O)N1CCCC1C(=O)NC(CCC(N)=O)C(=O)NC(C)C(=O)NC(C(=O)NC(Cc1ccccc1)C(=O)N1CCCC1C(=O)NC(C(=O)O)C(C)O)C(C)C` (stereo not shown) [Compound 2, Burriogladiodin B] ({Decanoyl(3ξ-OH)}-[X1]PQAVFPT-OH; configuration not given here), the MIC in data set [1] (Escherichia coli), in data set [2], in data set [3] and in data set [4] was over 100 µM throughout. Besides, the IC50 in [5], in data set [6], in data set [7], in data set [8], in data set [9] and in [10] was over 20 µM throughout. The IC50 in data set [11] is over 40 µM.
On to `CC=C(NC(=O)CC(O)CCCCCCC)C(=O)N1CCCC1C(=O)NC(CCC(N)=O)C(=O)NC(C)C(=O)NC(C(=O)NC(Cc1ccccc1)C(=O)O)C(C)C` (stereo not shown) [Compound 5, Burriogladiodin E] ({Decanoyl(3ξ-OH)}-[X1]PQAVF-OH; configuration not given here), for which the MIC in data set [1] (Escherichia coli), in data set [2], in [3] and in data set [4] was over 100 µM each time. In addition, the IC50 in data set [5], in data set [6], in data set [7], in data set [8], in data set [9] and in data set [10] was over 20 µM in each case. This compound also returned an IC50 in data set [11] of 24.9 ± 0.96 µM.
Regarding `CC=C(NC(=O)CC(O)CCCCCCC)C(=O)N1CCCC1C(=O)NC(CCC(N)=O)C(=O)NC(C)C(=O)NC(C)C(=O)NC(Cc1ccccc1)C(=O)O` (stereo not shown) [Compound 8, Burriogladiodin H] ({Decanoyl(3ξ-OH)}-[X1]PQAAF-OH; configuration not given here), the MIC in data set [1] (Escherichia coli), in data set [2], in [3] and in [4] was over 100 µM each time. Besides, the 50% inhibitory concentration (IC50) in data set [5], in [6], in [7], in data set [8], in data set [9] and in data set [10] was over 20 µM throughout. For the same compound, the half-maximal inhibitory concentration (IC50) in [11] is over 40 µM.
For `CC=C(NC(=O)CCCCCCC)C(=O)NC(=CC)C(=O)NC(Cc1ccc(O)cc1)C(=O)NC(CC(C)C)C(=O)Nc1ccc(C(=O)NC(C(=O)O)C(C)O)cc1` (stereo not shown) [Compound 9, Haereogladiodin A], the MIC in data set [1] (setting [12]), in data set [2], in data set [3] and in [4] was over 100 µM in each case. In addition, the IC50 in data set [5], in [6], in data set [7], in data set [8], in data set [9] and in [10] was over 20 µM each time. In data set [11], this compound had an IC50 of 36.1 ± 0.81 µM.
As to `CC=C(NC(=O)CCCCCCC)C(=O)NC(=CC)C(=O)NC(Cc1ccc(O)cc1)C(=O)O` (stereo not shown) [Compound 10, Haereogladiodin B], the MIC in data set [1] (setting [12]), in data set [2], in data set [3] and in [4] was over 100 µM each time. The IC50 in data set [5], in data set [6], in data set [7], in data set [8], in [9] and in data set [10] was over 20 µM each time. This compound gave an IC50 in data set [11] of 33.9 ± 0.75 µM.
As to `COc1cccc2c1C(=O)c1c(O)c3c(c(O)c1C2=O)C[C@@](O)(C(=O)CO)C[C@@H]3O[C@H]1C[C@H](N)[C@H](O)[C@H](C)O1` [adriamycin, reference compound], the IC50 amounted to 0.73 ± 0.05 µM in [5]; 0.86 ± 0.07 µM in data set [6]; 0.61 ± 0.07 µM in [7]; 0.68 ± 0.001 µM in [8]; 0.61 ± 0.03 µM in [9]; 0.57 ± 0.02 µM in data set [10]. The midpoint of inhibition in data set [11] (293T cells (normal cell line)), the IC50, lay at 1.47 ± 0.15 µM.
